Where two headings read alike, the source gives them in different places. Values belong to the molecule of their own block, whether it stands above or below them.
What was measured:
Type in all cases: cell-based
Kv1.1-G311D channels = target: T1, Kv1.1-G311D channels (Homo sapiens, UniProt Q09470, G311D); test: TEVC of oocytes expressing 100% Kv1.1-G311D; settings: compound 1 µM
T1 construct: expressed in transfected cells; host or cells: Xenopus laevis oocytes
Description: (§1) EA1 mutant G311D is in the S4-5 linker of Kv1.1 (Fig. 5a) and produces a 65% prepulse current reduction both in Kv1.1-G311D and in Kv1.1/Kv1.1-G311D channels[43],[44]; either channel type was minimally responsive to the plant extracts tested (Supplementary Figs. 3 and 4). EA1 mutant L328V (which is associated with tetany and hypomagnesemia) is located in the intracellular end of Kv1.1 S5 (Fig. 5a) and results in complete current loss in a dominant negative manner, i.e., Kv1.1-L328V and Kv1.1/Kv1.1-L328V channels are each nonfunctional. The traditional ataxia remedy plant extracts were unable to rescue Kv1.1-L328V or Kv1.1/Kv1.1-L328V function (Supplementary Figs. 5 and 6). EA1 mutant V408A is in the intracellular-proximal end of Kv1.1 S6 (Fig. 5a) and reduces current, speeds deactivation, and increases C-type inactivation of Kv1.1[46]. Here, Native American ataxia remedy extracts had relatively minor effects on Kv1.1-V408A activity, with nettle and Pacific ninebark (roots or leaves) inducing hyperpolarizing shifts in EM, and Pacific ninebark leaves inducing a negative shift in the voltage dependence of activation, although this was not quantifiable due to the very small tail currents (Supplementary Fig. 7). Effects of the extracts on Kv1.1/Kv1.1-V408A activity were also relatively minor (Supplementary Fig. 8). […]

Kv1.1-V408A channels = target: T2, Kv1.1-V408A channels (Homo sapiens, UniProt Q09470, V408A); test: TEVC of oocytes expressing 100% Kv1.1-V408A; settings: compound 1 µM
T2 construct: expressed in transfected cells; host or cells: Xenopus laevis oocytes
T2 sequence (Q09470 whole entry V408A): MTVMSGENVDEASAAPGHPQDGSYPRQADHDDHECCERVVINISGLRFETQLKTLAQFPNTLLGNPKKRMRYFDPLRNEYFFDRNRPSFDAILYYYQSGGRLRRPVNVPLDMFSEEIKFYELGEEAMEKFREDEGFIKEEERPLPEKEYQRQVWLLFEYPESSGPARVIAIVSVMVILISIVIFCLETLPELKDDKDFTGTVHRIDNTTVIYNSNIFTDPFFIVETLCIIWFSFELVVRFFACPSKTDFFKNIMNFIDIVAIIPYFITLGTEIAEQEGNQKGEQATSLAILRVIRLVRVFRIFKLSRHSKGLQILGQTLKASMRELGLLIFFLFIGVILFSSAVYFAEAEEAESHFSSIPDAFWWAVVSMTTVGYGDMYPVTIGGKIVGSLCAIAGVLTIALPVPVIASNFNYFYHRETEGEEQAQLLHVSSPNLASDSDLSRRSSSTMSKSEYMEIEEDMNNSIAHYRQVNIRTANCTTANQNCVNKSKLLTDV
Description: as §1
(§2) We performed TEVC at room temperature using an OC-725C amplifier (Warner Instruments, Hamden, CT) and pClamp10 software (Molecular Devices, Sunnyvale, CA) 2 days after cRNA injection as described in the section above. […] We recorded currents in response to voltage pulses between −80 mV and +40 mV at 10 or 20 mV intervals from a holding potential of −80 mV, to yield current-voltage relationships and examine activation kinetics. To calculate the voltage dependence of activation (V0.5), tail currents were recorded at a voltage pulse of −50 mV immediately following prepulse voltages between −80 mV and +40 mV. We analyzed data using Clampfit (Molecular Devices) and Graphpad Prism software (GraphPad, San Diego, CA, USA), stating values as mean ± SEM. […]

[1] = target: T3, Kv1.1/Kv1.1-E283K channels (Homo sapiens, UniProt Q09470, E283K); test: TEVC of oocytes co-injected with 50/50 wild-type/E283K Kv1.1 cRNA
T3 construct: expressed in transfected cells; host or cells: Xenopus laevis oocytes co-injected with 50/50 wild-type/mutant cRNA
T3 sequence (Q09470 whole entry, stated change not applied): as the sequence (Q09470 whole entry V408A) above, with A408V counted along it
T3 sequence (Q09470 whole entry E283K): as the sequence (Q09470 whole entry V408A) above, with E283K, A408V counted along it
Experimental: We next tested effects on channels generated by co-injection of 50/50 wild-type/mutant Kv1.1 cRNA. Strikingly, gallic acid (1 µM) was able to hyperpolarize (by −15.5 ± 0.5 mV; n = 4; P < 0.0001) the V0.5 act of Kv1.1/Kv1.1-E283K channels, restoring voltage dependence typical of wild-type Kv1.1 (Fig. 7a–c), also inducing a −14 ± 0.7 mV hyperpolarization (n = 4; P = 0.0005) in EM of oocytes expressing Kv1.1/Kv1.1-E283K (Fig. 7d). […] Because of this hint at activity improvement in L155P channels we also applied higher concentrations (10 and 100 µM) of gallic acid, which produced a more robust (−12.5 ± 0.6 mV and −14.1 ± 0.6 mV, respectively) hyperpolarization of Kv1.1/Kv1.1-L155P V0.5 act (Fig. 8b, c) and hyperpolarized EM by −14.0 ± 0.6 mV and −15.2 ± 0.7 mV, respectively (Fig. 8d).
Wild-type and mutant Kv1 cDNAs were generated (Genscript, Piscataway, NJ) in the pTLNx expression vector. As previously described, we generated cRNA transcripts encoding human Kv1.1 (wild-type and mutant) and Kv1.2, by in vitro transcription using the mMessage mMachine kit (Thermo Fisher Scientific), after vector linearization, from cDNA sub-cloned into plasmids (pTLNx) incorporating Xenopus laevis β-globin 5’ and 3’ UTRs flanking the coding region to enhance translation and cRNA stability. We injected defolliculated stage V and VI Xenopus laevis oocytes (Xenoocyte, Dexter, MI, US) with Kv1 cRNAs (1–5 ng). We incubated the oocytes at 16 °C in ND96 oocyte storage solution containing penicillin and streptomycin, with daily washing, for 2 days prior to two-electrode voltage-clamp (TEVC) recording.
We performed TEVC at room temperature using an OC-725C amplifier (Warner Instruments, Hamden, CT) and pClamp10 software (Molecular Devices, Sunnyvale, CA) 2 days after cRNA injection as described in the section above. For recording, oocytes we placed in a small-volume oocyte bath (Warner) and viewed with a dissection microscope. We sourced chemicals from Sigma. We studied effects of plant extracts and of compounds, solubilized directly in bath solution (in mM): 96 NaCl, 4 KCl, 1 MgCl2, 1 CaCl2, 10 HEPES (pH 7.6). We introduced extracts or compounds into the oocyte recording bath by gravity perfusion at a constant flow of 1 ml per minute for 3 min prior to recording. Pipettes were of 1–2 MΩ resistance when filled with 3 M KCl. We recorded currents in response to voltage pulses between −80 mV and +40 mV at 10 or 20 mV intervals from a holding potential of −80 mV, to yield current-voltage relationships and examine activation kinetics. To calculate the voltage dependence of activation (V0.5), tail currents were recorded at a voltage pulse of −50 mV immediately following prepulse voltages between −80 mV and +40 mV. We analyzed data using Clampfit (Molecular Devices) and Graphpad Prism software (GraphPad, San Diego, CA, USA), stating values as mean ± SEM. We plotted raw or normalized tail currents vs. prepulse voltage and fitted with a single Boltzmann function:1 g=(A1−A2)/1+exp[V1/2−V/Vs]y+A2 where g is the normalized tail conductance, A1 is the initial value at -∞, A2 is the final value at +∞, V1/2 is the half-maximal voltage of activation and Vs the slope factor.

Kv1.1-L155P channels = target: T4, Kv1.1-L155P channels (Homo sapiens, UniProt Q09470, L155P); test: TEVC of oocytes expressing 100% Kv1.1-L155P; settings: compound 1 µM
T4 construct: expressed in transfected cells; host or cells: Xenopus laevis oocytes
T4 sequence (Q09470 whole entry L155P): as the sequence (Q09470 whole entry V408A) above, with L155P, A408V counted along it
Description: As previously described[24], we generated cRNA transcripts encoding human Kv1.1 (wild-type and mutant) and Kv1.2, by in vitro transcription using the mMessage mMachine kit (Thermo Fisher Scientific), after vector linearization, from cDNA sub-cloned into plasmids (pTLNx) incorporating Xenopus laevis β-globin 5’ and 3’ UTRs flanking the coding region to enhance translation and cRNA stability. We injected defolliculated stage V and VI Xenopus laevis oocytes (Xenoocyte, Dexter, MI, US) with Kv1 cRNAs (1–5 ng). […]

Kv1.1-E283K channels = target: T5, Kv1.1-E283K channels (Homo sapiens, UniProt Q09470, E283K); test: TEVC of oocytes injected with 100% Kv1.1-E283K cRNA; settings: for EC50: biphasic dose response
T5 construct: expressed in transfected cells; host or cells: Xenopus laevis oocytes
T5 sequence (Q09470 whole entry E283K): as the sequence (Q09470 whole entry V408A) above, with E283K, A408V counted along it

Kv1.1-L328V channels = target: T6, Kv1.1-L328V channels (Homo sapiens, UniProt Q09470, L328V); test: TEVC of oocytes expressing 100% Kv1.1-L328V; settings: compound 1 µM
T6 construct: expressed in transfected cells; host or cells: Xenopus laevis oocytes
T6 sequence (Q09470 whole entry L328V): as the sequence (Q09470 whole entry V408A) above, with L328V, A408V counted along it
Description: as §1, §2

[2] = -20 mV, Figure 6 table, head 1 µM Tannic acid, footnote bladderwrack kelp

T1 sequence (Q09470 whole entry G311D): as the sequence (Q09470 whole entry V408A) above, with G311D, A408V counted along it

effect on channel activity (Kv1.1-G311D channels): did not alter
hyperpolarizing shift of V0.5 act ([1]; 1 µM): −12 mV
effect on channel activity (Kv1.1-L155P channels): did not alter
TauAct (Kv1.1-E283K channels; 0 mV, 1 µM, Figure 9 table): 15.70 ± 1.40 ms
TauAct (Kv1.1-E283K channels; 0 mV, Figure 6 table, head 1 µM Tannic acid, footnote bladderwrack kelp): 21.12 ± 4.35 ms
Peak current at -40 mV (Kv1.1-E283K channels; 0.1 µM): 0.02 ± 0.01 µA
Peak current at -40 mV (Kv1.1-E283K channels; 1 µM): 0.02 ± 0.01 µA
shift in the EM (Kv1.1-E283K channels; 1 µM): ~−20 mV
shift of V0.5 activation (Kv1.1-E283K channels; 1 µM): −13 ± 0.26 mV
Current-fold change -30 mV (Kv1.1-E283K channels; 1 µM compound): 4.69 ± 1.69
increase of activity (Kv1.1-E283K channels; 1 µM, at −40 to −20 mV): ≤ 20 fold
Peak current at -40 mV (Kv1.1-E283K channels; 10 µM): 0.02 ± 0.01 µA
Peak current at -40 mV (Kv1.1-E283K channels; 30 µM): 0.02 ± 0.01 µA
Peak current at -40 mV (Kv1.1-E283K channels; 100 µM): 0.03 ± 0.01 µA
TauAct (Kv1.1-E283K channels; +10 mV, 1 µM, Figure 9 table): 12.94 ± 1.05 ms
TauAct (Kv1.1-E283K channels; +10 mV, Figure 6 table, head 1 µM Tannic acid, footnote bladderwrack kelp): 17.43 ± 3.97 ms
TauAct (Kv1.1-E283K channels; +20 mV, 1 µM, Figure 9 table): 11.30 ± 0.89 ms
TauAct (Kv1.1-E283K channels; +20 mV, Figure 6 table, head 1 µM Tannic acid, footnote bladderwrack kelp): 12.72 ± 2.85 ms
TauAct (Kv1.1-E283K channels; +30 mV, 1 µM, Figure 9 table): 10.16 ± 0.83 ms
TauAct (Kv1.1-E283K channels; +30 mV, Figure 6 table, head 1 µM Tannic acid, footnote bladderwrack kelp): 10.63 ± 2.79 ms
TauAct (Kv1.1-E283K channels; +40 mV, 1 µM, Figure 9 table): 9.46 ± 0.83 ms
TauAct (Kv1.1-E283K channels; +40 mV, Figure 6 table, head 1 µM Tannic acid, footnote bladderwrack kelp): 10.04 ± 2.65 ms
TauAct (Kv1.1-E283K channels; -10 mV, 1 µM, Figure 9 table): 20.71 ± 2.35 ms
TauAct (Kv1.1-E283K channels; -10 mV, Figure 6 table, head 1 µM Tannic acid, footnote bladderwrack kelp): 27.06 ± 7.08 ms
TauAct (Kv1.1-E283K channels; -20 mV, 1 µM, Figure 9 table): 31.31 ± 2.98 ms
TauAct (Kv1.1-E283K channels; [2]): 41.32 ± 8.47 ms
TauDeact (Kv1.1-E283K channels; [2]): 0.87 ± 0.36 ms
TauDeact (Kv1.1-E283K channels; -30 mV, Figure 6 table, head 1 µM Tannic acid, footnote bladderwrack kelp): 0.79 ± 0.32 ms
TauDeact (Kv1.1-E283K channels; -40 mV, Figure 6 table, head 1 µM Tannic acid, footnote bladderwrack kelp): 0.88 ± 0.36 ms
TauDeact (Kv1.1-E283K channels; -50 mV, Figure 6 table, head 1 µM Tannic acid, footnote bladderwrack kelp): 1.04 ± 0.44 ms
TauDeact (Kv1.1-E283K channels; -60 mV, Figure 6 table, head 1 µM Tannic acid, footnote bladderwrack kelp): 1.23 ± 0.52 ms
TauDeact (Kv1.1-E283K channels; -70 mV, Figure 6 table, head 1 µM Tannic acid, footnote bladderwrack kelp): 1.38 ± 0.56 ms
TauDeact (Kv1.1-E283K channels; -80 mV, Figure 6 table, head 1 µM Tannic acid, footnote bladderwrack kelp): 1.50 ± 0.57 ms
EC50 (Kv1.1-E283K channels; read-out: EC50 for effects on EM, first component): 1.1 ± 0.9 nM
EC50 (Kv1.1-E283K channels; read-out: EC50 for effects on EM, second component): 10000 ± 400 nM
EC50 (Kv1.1-E283K channels; from the increase in relative tail current at −40 mV, read-out: EC50, higher sensitivity component): 3.7 ± 2.6 nM
EM (Kv1.1-E283K channels; in presence of 1 µM compound): -44.83 ± 0.14 mV
Slope (Kv1.1-E283K channels; in presence of 1 µM compound): 8.70 ± 1.19 mV
V0.5 Normalized tail current (Kv1.1-E283K channels; in presence of 1 µM compound): -22.75 ± 1.34 mV
effect on channel activity (Kv1.1-L328V channels): does not rescue
Molecule: tannic acid
effect on channel activity (Kv1.1-V408A channels): subtle improvements in Kv1.1-V408A function but slowed its activation

Molecule: O=C(O)c1cc(O)c(O)c(O)c1 [gallic acid]
effect on channel activity (Kv1.1-G311D channels): ineffective at rescuing activity
effect on channel activity (Kv1.1-V408A channels): ineffective at rescuing activity
hyperpolarization in EM ([1]; 1 µM): −14 ± 0.7 mV
hyperpolarizing shift of V0.5 act ([1]; 1 µM): −15.5 ± 0.5 mV
EM ([1]; in presence of 1 µM compound): -47.80 ± 0.65 mV
Slope ([1]; in presence of 1 µM compound): 5.70 ± 1.12 mV
V0.5 Normalized tail current ([1]; in presence of 1 µM compound): -27.50 ± 0.51 mV
effect on channel activity (Kv1.1-L155P channels): ineffective at rescuing activity
effect on channel activity (Kv1.1-E283K channels; compound 1 µM): only very minor functional improvements
effect on channel activity (Kv1.1-L328V channels): ineffective at rescuing activity
